From ChEMBL document CHEMBL4649986, “Chemical probes and inhibitors of bromodomains outside the BET family” (Medchemcomm, 2016)

Experiments:
[1] = biological target: Bromodomain-containing protein 2 (Homo sapiens) (UniProt P25440); details: Compound concentration 10.0 uM, Protein concentration 2.0 uM
[2] = biological target: Bromodomain-containing protein 3 (Homo sapiens) (UniProt Q15059); details: Compound concentration 10.0 uM, Protein concentration 2.0 uM
[3] = biological target: Bromodomain and WD repeat-containing protein 1 (Homo sapiens) (UniProt Q9NSI6); details: Compound concentration 10.0 uM, Protein concentration 2.0 uM
[4] = biological target: Transcription intermediary factor 1-beta (Homo sapiens) (UniProt Q13263); details: Compound concentration 10.0 uM, Protein concentration 2.0 uM
[5] = biological target: Bromodomain and PHD finger-containing protein 3 (Homo sapiens) (UniProt Q9ULD4); details: Compound concentration 10.0 uM, Protein concentration 2.0 uM
[6] = biological target: T1, Nucleosome-remodeling factor subunit BPTF (Homo sapiens, UniProt Q12830); experiment: Alphascreen assay. Binding to FALZA (domain start/stop: S2791-H2911) by alphascreen assay
[7] = biological target: ATPase family AAA domain-containing protein 2B (Homo sapiens) (UniProt Q9ULI0); details: Compound concentration 10.0 uM, Protein concentration 2.0 uM
[8] = biological target: Protein polybromo-1 (Homo sapiens) (UniProt Q86U86); details: Compound concentration 10.0 uM, Protein concentration 2.0 uM
[9] = biological target: Bromodomain-containing protein 7 (Homo sapiens) (UniProt Q9NPI1); details: Compound concentration 10.0 uM, Protein concentration 2.0 uM
[10] = biological target: T2, Chromatin remodeling regulator CECR2 (Homo sapiens, UniProt Q9BXF3); details: Compound concentration 10.0 uM, Protein concentration 2.0 uM
[11] = biological target: Transcription initiation factor TFIID subunit 1-like (Homo sapiens) (UniProt Q8IZX4); details: Compound concentration 10.0 uM, Protein concentration 2.0 uM
[12] = biological target: Bromodomain testis-specific protein (Homo sapiens) (UniProt Q58F21); details: Compound concentration 10.0 uM, Protein concentration 2.0 uM
[13] = biological target: Transcription initiation factor TFIID subunit 1 (Homo sapiens) (UniProt P21675); details: Compound concentration 10.0 uM, Protein concentration 2.0 uM
[14] = biological target: Histone-lysine N-methyltransferase 2A (Homo sapiens) (UniProt Q03164); details: Compound concentration 10.0 uM, Protein concentration 2.0 uM
[15] = biological target: Bromodomain-containing protein 1 (Homo sapiens) (UniProt O95696); details: Compound concentration 10.0 uM, Protein concentration 2.0 uM
[16] = biological target: Bromodomain-containing protein 4 (Homo sapiens) (UniProt O60885); details: Compound concentration 10.0 uM, Protein concentration 2.0 uM
[17] = biological target: Nuclear body protein SP140-like protein (Homo sapiens) (UniProt Q9H930); details: Compound concentration 10.0 uM, Protein concentration 2.0 uM
Peregrin (Homo sapiens) [18] = biological target: Peregrin (Homo sapiens) (UniProt P55201); details: Compound concentration 10.0 uM, Protein concentration 2.0 uM
[19] = biological target: Histone acetyltransferase KAT2A (Homo sapiens) (UniProt Q92830); details: Compound concentration 10.0 uM, Protein concentration 2.0 uM
[20] = biological target: Bromodomain adjacent to zinc finger domain protein 1A (Homo sapiens) (UniProt Q9NRL2); details: Compound concentration 10.0 uM, Protein concentration 2.0 uM
[21] = biological target: T2, Chromatin remodeling regulator CECR2; experiment: Alphascreen assay. Binding to CECR2A (domain start/stop: P420-D543) by alphascreen assay
[22] = biological target: CREB-binding protein (Homo sapiens) (UniProt Q92793); details: Compound concentration 10.0 uM, Protein concentration 2.0 uM
[23] = biological target: Bromodomain testis-specific protein (Homo sapiens) (UniProt Q58F21); details: Compound concentration 10.0 uM, Protein concentration 2.0 uM; remark: listed apart in the source
[24] = biological target: Bromodomain and WD repeat-containing protein 3 (Homo sapiens) (UniProt Q6RI45); details: Compound concentration 10.0 uM, Protein concentration 2.0 uM
[25] = biological target: Protein polybromo-1 (Homo sapiens) (UniProt Q86U86); details: Compound concentration 10.0 uM, Protein concentration 2.0 uM; remark: listed apart in the source
[26] = biological target: Protein polybromo-1 (Homo sapiens) (UniProt Q86U86); details: Compound concentration 10.0 uM, Protein concentration 2.0 uM; remark: listed apart in the source
[27] = biological target: Protein polybromo-1 (Homo sapiens) (UniProt Q86U86); details: Compound concentration 10.0 uM, Protein concentration 2.0 uM; remark: listed apart in the source
[28] = biological target: Nuclear body protein SP140 (Homo sapiens) (UniProt Q13342); details: Compound concentration 10.0 uM, Protein concentration 2.0 uM
[29] = biological target: Histone acetyltransferase KAT2B (Homo sapiens) (UniProt Q92831); details: Compound concentration 10.0 uM, Protein concentration 2.0 uM
[30] = biological target: Bromodomain adjacent to zinc finger domain protein 2B (Homo sapiens) (UniProt Q9UIF8); details: Compound concentration 10.0 uM, Protein concentration 2.0 uM
[31] = biological target: Transcription initiation factor TFIID subunit 1 (Homo sapiens) (UniProt P21675); details: Compound concentration 10.0 uM, Protein concentration 2.0 uM; remark: listed apart in the source
[32] = biological target: ATPase family AAA domain-containing protein 2 (Homo sapiens) (UniProt Q6PL18); details: Compound concentration 10.0 uM, Protein concentration 2.0 uM
[33] = biological target: PH-interacting protein (Homo sapiens) (UniProt Q8WWQ0); details: Compound concentration 10.0 uM, Protein concentration 2.0 uM
[34] = biological target: Protein polybromo-1 (Homo sapiens) (UniProt Q86U86); details: Compound concentration 10.0 uM, Protein concentration 2.0 uM; remark: listed apart in the source
[35] = biological target: Protein polybromo-1 (Homo sapiens) (UniProt Q86U86); details: Compound concentration 10.0 uM, Protein concentration 2.0 uM; remark: listed apart in the source
[36] = biological target: Transcription intermediary factor 1-alpha (Homo sapiens) (UniProt O15164); details: Compound concentration 10.0 uM, Protein concentration 2.0 uM
[37] = biological target: Histone-lysine N-methyltransferase ASH1L (Homo sapiens) (UniProt Q9NR48); details: Compound concentration 10.0 uM, Protein concentration 2.0 uM
[38] = biological target: Bromodomain adjacent to zinc finger domain protein 2A (Homo sapiens) (UniProt Q9UIF9); details: Compound concentration 10.0 uM, Protein concentration 2.0 uM
[39] = biological target: Bromodomain-containing protein 9 (Homo sapiens) (UniProt Q9H8M2); details: Compound concentration 10.0 uM, Protein concentration 2.0 uM
[40] = biological target: Bromodomain-containing protein 3 (Homo sapiens) (UniProt Q15059); details: Compound concentration 10.0 uM, Protein concentration 2.0 uM; remark: listed apart in the source
[41] = biological target: SWI/SNF-related matrix-associated actin-dependent regulator of chromatin subfamily A member 4 (Homo sapiens) (UniProt P51532); details: Compound concentration 10.0 uM, Protein concentration 2.0 uM
[42] = biological target: Histone acetyltransferase p300 (Homo sapiens) (UniProt Q09472); details: Compound concentration 10.0 uM, Protein concentration 2.0 uM
[43] = biological target: Tyrosine-protein kinase BAZ1B (Homo sapiens) (UniProt Q9UIG0); details: Compound concentration 10.0 uM, Protein concentration 2.0 uM
Peregrin (Homo sapiens) [44] = biological target: Peregrin (Homo sapiens) (UniProt P55201); details: Compound concentration 10.0 uM, Protein concentration 2.0 uM; remark: listed apart in the source
[45] = biological target: T1, Nucleosome-remodeling factor subunit BPTF; details: Compound concentration 10.0 uM, Protein concentration 2.0 uM
[46] = biological target: SWI/SNF-related matrix-associated actin-dependent regulator of chromatin subfamily A member 2 (Homo sapiens) (UniProt P51531); details: Compound concentration 10.0 uM, Protein concentration 2.0 uM
[47] = biological target: Transcription initiation factor TFIID subunit 1-like (Homo sapiens) (UniProt Q8IZX4); details: Compound concentration 10.0 uM, Protein concentration 2.0 uM; remark: listed apart in the source
Peregrin = Peregrin (Homo sapiens, UniProt P55201); experiment: Alphascreen assay. Binding to BRPF1B (domain start/stop: M626-G740) by alphascreen assay
[48] = biological target: Bromodomain-containing protein 2 (Homo sapiens) (UniProt P25440); details: Compound concentration 10.0 uM, Protein concentration 2.0 uM; remark: listed apart in the source
[49] = biological target: T2, Chromatin remodeling regulator CECR2; experiment: Alphascreen assay. Binding to CECR2A (domain start/stop: P420-H538) by alphascreen assay

Sequence of Protein polybromo-1 (Homo sapiens) (Q86U86 whole entry): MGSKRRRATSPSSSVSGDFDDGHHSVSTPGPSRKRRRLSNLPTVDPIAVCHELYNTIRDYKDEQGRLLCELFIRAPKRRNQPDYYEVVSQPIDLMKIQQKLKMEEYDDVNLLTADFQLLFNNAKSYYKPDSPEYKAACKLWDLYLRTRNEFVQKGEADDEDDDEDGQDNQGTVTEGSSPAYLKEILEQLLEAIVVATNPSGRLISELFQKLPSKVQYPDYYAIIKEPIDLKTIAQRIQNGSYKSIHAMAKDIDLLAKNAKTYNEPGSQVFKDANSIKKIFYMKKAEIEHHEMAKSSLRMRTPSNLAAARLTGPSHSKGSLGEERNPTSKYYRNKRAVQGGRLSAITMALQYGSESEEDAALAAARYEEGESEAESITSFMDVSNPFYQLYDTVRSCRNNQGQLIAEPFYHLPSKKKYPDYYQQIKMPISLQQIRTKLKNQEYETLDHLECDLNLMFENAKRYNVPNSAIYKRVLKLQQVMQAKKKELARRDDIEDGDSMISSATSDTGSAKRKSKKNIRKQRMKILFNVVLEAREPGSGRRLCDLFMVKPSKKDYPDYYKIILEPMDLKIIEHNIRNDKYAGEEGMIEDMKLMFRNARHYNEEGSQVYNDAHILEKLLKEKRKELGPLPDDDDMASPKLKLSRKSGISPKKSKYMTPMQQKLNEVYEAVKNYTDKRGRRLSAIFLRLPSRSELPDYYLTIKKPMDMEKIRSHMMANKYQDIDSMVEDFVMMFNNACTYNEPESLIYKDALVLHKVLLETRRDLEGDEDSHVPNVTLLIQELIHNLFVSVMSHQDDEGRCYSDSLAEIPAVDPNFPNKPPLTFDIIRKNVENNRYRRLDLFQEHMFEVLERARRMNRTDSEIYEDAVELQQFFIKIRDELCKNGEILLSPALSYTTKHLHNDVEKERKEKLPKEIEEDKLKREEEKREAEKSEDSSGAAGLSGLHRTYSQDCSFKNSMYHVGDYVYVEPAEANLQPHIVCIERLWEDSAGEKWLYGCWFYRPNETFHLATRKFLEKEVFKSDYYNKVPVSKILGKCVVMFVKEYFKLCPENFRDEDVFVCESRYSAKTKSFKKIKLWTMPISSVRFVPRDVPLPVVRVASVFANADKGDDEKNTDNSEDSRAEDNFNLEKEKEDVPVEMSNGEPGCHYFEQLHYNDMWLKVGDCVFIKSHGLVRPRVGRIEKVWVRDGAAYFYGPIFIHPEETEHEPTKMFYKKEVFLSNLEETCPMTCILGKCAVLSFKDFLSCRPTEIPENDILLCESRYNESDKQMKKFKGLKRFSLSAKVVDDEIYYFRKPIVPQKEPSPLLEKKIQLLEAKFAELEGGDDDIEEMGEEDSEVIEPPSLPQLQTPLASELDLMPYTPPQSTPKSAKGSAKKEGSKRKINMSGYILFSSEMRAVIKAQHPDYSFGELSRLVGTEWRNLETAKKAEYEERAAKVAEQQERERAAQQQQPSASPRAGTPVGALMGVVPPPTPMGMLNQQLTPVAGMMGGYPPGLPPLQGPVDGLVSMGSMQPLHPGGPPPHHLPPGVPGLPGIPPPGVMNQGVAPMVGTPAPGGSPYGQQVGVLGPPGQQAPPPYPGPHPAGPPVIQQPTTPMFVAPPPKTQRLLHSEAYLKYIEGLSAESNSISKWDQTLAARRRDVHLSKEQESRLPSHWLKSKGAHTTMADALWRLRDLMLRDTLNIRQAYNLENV
Sequence of Transcription initiation factor TFIID subunit 1-like (Homo sapiens) (Q8IZX4 whole entry): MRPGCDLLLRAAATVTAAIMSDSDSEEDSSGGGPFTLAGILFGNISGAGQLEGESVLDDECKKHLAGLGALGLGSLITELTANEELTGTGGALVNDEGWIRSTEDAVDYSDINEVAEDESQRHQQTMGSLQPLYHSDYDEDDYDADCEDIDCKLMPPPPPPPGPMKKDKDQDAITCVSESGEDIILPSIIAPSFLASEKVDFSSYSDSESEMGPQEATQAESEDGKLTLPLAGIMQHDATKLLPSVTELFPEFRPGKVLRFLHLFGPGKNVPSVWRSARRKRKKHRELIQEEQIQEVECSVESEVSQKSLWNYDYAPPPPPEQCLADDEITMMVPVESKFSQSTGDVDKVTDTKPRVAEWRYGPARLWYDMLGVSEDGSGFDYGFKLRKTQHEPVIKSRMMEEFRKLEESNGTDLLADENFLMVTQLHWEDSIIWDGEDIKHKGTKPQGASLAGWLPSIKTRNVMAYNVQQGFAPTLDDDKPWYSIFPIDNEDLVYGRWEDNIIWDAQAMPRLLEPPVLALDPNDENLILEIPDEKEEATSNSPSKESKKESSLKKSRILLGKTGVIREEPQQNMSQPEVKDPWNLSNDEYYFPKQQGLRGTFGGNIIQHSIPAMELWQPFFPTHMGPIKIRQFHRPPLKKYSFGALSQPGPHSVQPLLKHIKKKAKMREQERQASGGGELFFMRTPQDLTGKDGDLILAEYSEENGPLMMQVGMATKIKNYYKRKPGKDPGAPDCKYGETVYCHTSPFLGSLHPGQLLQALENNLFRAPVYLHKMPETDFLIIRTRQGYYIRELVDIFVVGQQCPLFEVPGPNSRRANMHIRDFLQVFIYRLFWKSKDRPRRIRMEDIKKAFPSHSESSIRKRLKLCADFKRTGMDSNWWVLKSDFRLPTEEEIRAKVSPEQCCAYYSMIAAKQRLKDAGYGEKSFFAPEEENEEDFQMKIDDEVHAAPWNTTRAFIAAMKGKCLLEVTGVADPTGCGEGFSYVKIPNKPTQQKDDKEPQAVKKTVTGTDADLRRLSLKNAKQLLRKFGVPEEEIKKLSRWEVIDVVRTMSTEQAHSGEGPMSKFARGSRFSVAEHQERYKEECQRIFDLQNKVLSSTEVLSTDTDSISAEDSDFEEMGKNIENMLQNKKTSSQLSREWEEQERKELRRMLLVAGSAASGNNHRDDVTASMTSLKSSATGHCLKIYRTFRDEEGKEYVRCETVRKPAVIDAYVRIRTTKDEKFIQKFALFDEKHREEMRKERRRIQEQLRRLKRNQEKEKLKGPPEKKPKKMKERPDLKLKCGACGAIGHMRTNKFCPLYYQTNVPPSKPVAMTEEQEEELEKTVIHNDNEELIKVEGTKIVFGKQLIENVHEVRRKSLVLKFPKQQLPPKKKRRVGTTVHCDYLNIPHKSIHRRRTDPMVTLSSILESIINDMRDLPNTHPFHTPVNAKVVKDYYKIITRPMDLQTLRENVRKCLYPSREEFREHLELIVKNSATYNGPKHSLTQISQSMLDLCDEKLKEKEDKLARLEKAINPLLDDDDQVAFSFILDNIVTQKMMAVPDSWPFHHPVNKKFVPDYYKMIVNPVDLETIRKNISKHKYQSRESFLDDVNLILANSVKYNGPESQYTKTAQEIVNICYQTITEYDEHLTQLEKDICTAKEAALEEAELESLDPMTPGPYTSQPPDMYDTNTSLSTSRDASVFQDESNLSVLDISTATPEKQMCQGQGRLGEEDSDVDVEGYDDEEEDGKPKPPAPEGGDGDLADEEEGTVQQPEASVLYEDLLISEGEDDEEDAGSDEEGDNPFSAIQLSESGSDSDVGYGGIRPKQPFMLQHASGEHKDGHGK
Sequence of Peregrin (Homo sapiens) (P55201 whole entry): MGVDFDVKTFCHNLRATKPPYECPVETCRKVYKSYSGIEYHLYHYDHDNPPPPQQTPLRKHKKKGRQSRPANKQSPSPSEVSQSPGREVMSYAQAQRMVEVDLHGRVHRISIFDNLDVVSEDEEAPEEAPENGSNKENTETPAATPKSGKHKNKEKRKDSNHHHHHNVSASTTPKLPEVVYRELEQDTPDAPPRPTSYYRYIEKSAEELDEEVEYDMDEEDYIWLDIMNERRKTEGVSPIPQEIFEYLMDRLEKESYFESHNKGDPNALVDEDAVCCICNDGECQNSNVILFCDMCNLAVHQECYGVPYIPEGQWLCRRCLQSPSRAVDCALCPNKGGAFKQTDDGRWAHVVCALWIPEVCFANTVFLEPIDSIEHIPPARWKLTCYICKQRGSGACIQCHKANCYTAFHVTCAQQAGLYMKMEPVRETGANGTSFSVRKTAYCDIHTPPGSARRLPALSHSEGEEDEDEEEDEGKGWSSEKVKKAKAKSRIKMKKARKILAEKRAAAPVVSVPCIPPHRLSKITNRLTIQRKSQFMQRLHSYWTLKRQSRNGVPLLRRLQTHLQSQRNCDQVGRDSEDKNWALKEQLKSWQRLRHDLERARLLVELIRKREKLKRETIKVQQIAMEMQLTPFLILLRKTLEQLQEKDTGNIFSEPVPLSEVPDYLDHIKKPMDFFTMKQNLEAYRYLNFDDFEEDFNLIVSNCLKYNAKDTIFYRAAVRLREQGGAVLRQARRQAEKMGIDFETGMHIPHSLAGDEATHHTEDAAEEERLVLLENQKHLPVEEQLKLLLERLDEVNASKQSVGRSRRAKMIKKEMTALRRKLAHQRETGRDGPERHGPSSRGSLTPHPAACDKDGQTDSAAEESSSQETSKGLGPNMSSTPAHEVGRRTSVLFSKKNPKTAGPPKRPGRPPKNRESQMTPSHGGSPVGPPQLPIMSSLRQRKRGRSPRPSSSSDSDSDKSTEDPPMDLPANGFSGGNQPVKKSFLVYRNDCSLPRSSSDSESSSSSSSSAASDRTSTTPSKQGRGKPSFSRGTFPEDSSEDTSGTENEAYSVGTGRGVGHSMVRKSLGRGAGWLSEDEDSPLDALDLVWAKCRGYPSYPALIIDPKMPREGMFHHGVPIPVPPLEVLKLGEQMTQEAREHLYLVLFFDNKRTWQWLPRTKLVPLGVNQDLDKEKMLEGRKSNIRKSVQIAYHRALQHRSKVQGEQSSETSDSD
Sequence of Peregrin (P55201 whole entry): as above

ΔTm [1]: 0.39 °C | ΔTm [2]: 0.35 °C | ΔTm [3]: 1.71 °C | ΔTm [4]: 1.37 °C | ΔTm [5]: 0.48 °C | IC50 [6]: 1460 nM | ΔTm [7]: 0.82 °C | ΔTm [8]: 0.63 °C | ΔTm [9]: 1.3 °C | ΔTm [10]: 12.6 °C | ΔTm [11]: 1.56 °C | ΔTm [12]: -0.15 °C | ΔTm [13]: 1.09 °C | ΔTm [14]: 0.08 °C | ΔTm [15]: 0.34 °C | ΔTm [16]: 1.85 °C | ΔTm [17]: 0.62 °C | ΔTm (Peregrin (Homo sapiens) [18]): 0.38 °C | ΔTm [19]: 1.2 °C | ΔTm [20]: -0.77 °C | IC50 [21]: 37.5 nM | ΔTm [22]: 0.36 °C | ΔTm [23]: 0.51 °C | ΔTm [24]: -0.86 °C | ΔTm [25]: 0.51 °C | ΔTm [26]: 0.48 °C | ΔTm [27]: 0.34 °C | ΔTm [28]: 0.58 °C | ΔTm [29]: 0.62 °C | ΔTm [30]: 0.4 °C | ΔTm [31]: 1.25 °C | ΔTm [32]: 1.07 °C | ΔTm [33]: -0.17 °C | ΔTm [34]: 0.88 °C | ΔTm [35]: -0.21 °C | ΔTm [36]: 1.38 °C | ΔTm [37]: 0.48 °C | ΔTm [38]: 0.14 °C | ΔTm [39]: 0.96 °C | ΔTm [40]: 0.37 °C | ΔTm [41]: 1.26 °C | ΔTm [42]: 0.85 °C | ΔTm [43]: -0.35 °C | ΔTm (Peregrin (Homo sapiens) [44]): 0.16 °C | ΔTm [45]: 1.67 °C | ΔTm [46]: 0.87 °C | ΔTm [47]: 0.73 °C | IC50 (Peregrin): 4400 nM | ΔTm [48]: 0.54 °C | IC50 [49]: 19.3 nM
SMILES: CCCS(=O)(=O)c1nc(NC2CC2)cc(-c2ccc3c(ccn3C3CC(C)(C)NC(C)(C)C3)c2)n1
